Assay results taken from ChEMBL document CHEMBL1149720, “Homoscalarane sesterterpenes from Lendenfeldia frondosa” (J Nat Prod, 1992).
The source made the active and inactive calls. The rule behind the calls is not given here.

What was measured:
[1] = Inhibition of PLA2 activity at 8 uM
[2] = Inhibition of PLA2 activity at 4 uM

Compound | Activity [1] | further results
COC(=O)[C@H]1[C@H](C(C)=O)[C@@H](OC(C)=O)C[C@H]2[C@]3(C)CC[C@H]4C(C)(C)CCC[C@]4(COC(C)=O)[C@H]3C[C@@H](O)[C@]12C | inactive | 
CC(=O)OC[C@]12CCCC(C)(C)[C@@H]1CC[C@]1(C)[C@@H]2C[C@H]2OC(=O)[C@H]3[C@H](C(C)=O)[C@H](OC(C)=O)C[C@@H]1[C@]23C |  | inhibition [1]: 35%
CC1=C(CC/C(C)=C/CCC2=CC[C@H](C3=CC(=O)O[C@H]3O)O[C@H]2O)C(C)(C)CCC1 |  | inhibition [2]: 100%
CC(=O)OC[C@]12CCCC(C)(C)[C@@H]1CC[C@]1(C)[C@@H]2C[C@@H](O)[C@]2(C)[C@H]3C(=O)O[C@@H](C)[C@@H]3[C@@H](OC(C)=O)C[C@@H]12 | inactive | 
